We go through 8 compounds from patent US9839642B2, “Beta-tetrazolyl-propionic acids as metallo-beta-lactamase inhibitors” (priority 2014, dated 2017).

Usually IC50 stands for the concentration at which inhibition is half-maximal.

The target in assay [1] is IMP-1 (Serratia marcescens, UniProt P52699). In words: Enzyme activity: determination of IC50, fluorescence assay with CCF2-FA substrate. Particulars: IMP-1 enzyme 2 pM, CCF2-FA 1.25 μM, 2 hours at 25° C.; read-out: IMP1 IC50. The format is biochemical. In a few lines:
(§1)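 Read-out: fluorescence, ex 405 nm / em 460 nm, after 2 h at 25° C with 1.25 μM CCF2-FA. Buffer 100 mM KH2PO4 pH 7, 0.005% Tween-20, 10 μM ZnSO4; enzyme 1 pM NDM-1, 2 pM IMP-1, 30 pM VIM-1. IC50 by 4-parameter fit.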

Assay [2] deals with NDM-1 (Klebsiella pneumoniae, UniProt C7C422). Described as above. The format is biochemical. Particulars: NDM-1 enzyme 1 pM, CCF2-FA 1.25 μM, 2 hours at 25° C.; read-out: NDM1 IC50. In a few lines:
as §1

In assay [3] the target is VIM-1 (Pseudomonas aeruginosa, UniProt A0A0F7KYQ8). Described as above. The format is biochemical. The settings on record: VIM-1 enzyme 30 pM, CCF2-FA 1.25 μM, 2 hours at 25° C.; read-out: VIM1 IC50. In outline:
as §1

In assay [4] the test system is Escherichia coli expressing NDM-1 (CLB30016). In words: Antibiotic potentiation activity: synergistic concentration (MITC95) with imipenem, growth by OD600. Particulars: E. coli CLB30016 (NDM-1), 95% inhibition of growth. The format is cell-based. In a few lines: (§2)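 Strains grown overnight at 35° C, resuspended in saline, diluted 1:100 into 1.1×CAMHB; imipenem at 1 μg/ml or 4 μg/ml with test compound 200 μM to 0.195 μM. Incubated 22 hours to 24 hours at 35° C, OD600 read; MITC95 is lowest compound concentration inhibiting 95% of growth.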

Assay [5] has as its system Klebsiella pneumoniae expressing VIM-1 (IHMA599644). The description is as above. The settings on record: K. pneumoniae IHMA599644 (VIM-1), 95% inhibition of growth. The format is cell-based. In a few lines:
as §2

Assay [6] has as its system Serratia marcescens expressing IMP-1 (CL5741). The description is as above. The format is cell-based. The settings on record: S. marcescens CL5741 (IMP-1), 95% inhibition of growth. In outline:
as §2

IMP-1, sequence (P52699 19-246, looked up, species assumed): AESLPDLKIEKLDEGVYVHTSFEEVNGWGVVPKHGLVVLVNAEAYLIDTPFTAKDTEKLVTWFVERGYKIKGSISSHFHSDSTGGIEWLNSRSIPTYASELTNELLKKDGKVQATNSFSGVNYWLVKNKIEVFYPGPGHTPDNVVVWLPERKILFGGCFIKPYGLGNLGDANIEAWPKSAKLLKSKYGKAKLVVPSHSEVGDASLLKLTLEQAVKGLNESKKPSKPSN
NDM-1, sequence (C7C422 29-270, looked up, species assumed): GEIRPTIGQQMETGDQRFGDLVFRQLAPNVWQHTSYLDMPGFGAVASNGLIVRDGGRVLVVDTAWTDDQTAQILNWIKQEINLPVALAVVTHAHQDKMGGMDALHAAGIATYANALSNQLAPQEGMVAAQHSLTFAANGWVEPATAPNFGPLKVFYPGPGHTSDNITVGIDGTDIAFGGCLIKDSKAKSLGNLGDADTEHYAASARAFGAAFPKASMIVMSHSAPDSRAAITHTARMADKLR

Take `CCC[C@H](C(=O)[O-])[C@H](Cc1ccc(C2CC[N+](C)(C)C2)cc1)c1nnn[nH]1` (stereo partly drawn) [Example 418, (2S)-2-((1S)-2-(4-(1,1-dimethylpyrrolidin-1-ium-3-yl)phenyl)-1-(1H-tetrazol-5-yl)ethyl)pentanoate]: the IC50 in assay [1] worked out at 1990 nM; in assay [2], 405 nM; in assay [3], 30.8 nM. For the same compound, in assay [4], the “NDM1 EC30016 MITC95” value stood at 18.75 µM. Further, in assay [5], the “VIM1 KP599644 MITC95” value was found to be 25 µM. In assay [6], the “IMP1 SM5741 MITC95” value came out at 37.5 µM.

As for `CCC[C@H](C(=O)[O-])[C@H](Cc1ccc(C[N+](C)(C)C)cc1)c1nnn[nH]1` [Example 419, (S)-2-((S)-1-(1H-tetrazol-5-yl)-2-(4-((trimethylammonio)methyl)phenyl)ethyl)pentanoate], the IC50 in assay [1] worked out at 5920 nM; in assay [2] it was 869 nM; in assay [3], 5.51 nM. Besides, in assay [4], the “NDM1 EC30016 MITC95” value came out at 6.25 µM. The “VIM1 KP599644 MITC95” value in assay [5] turned out to be 12.5 µM. Besides, in assay [6], the “IMP1 SM5741 MITC95” value came to 50 µM.

As for `CC(C)(C)[C@H](C(=O)O)C(Cc1ccc(N)nc1)c1nnn[nH]1` (stereo partly drawn) [Example 420, (2R,3S)-4-(6-aminopyridin-3-yl)-2-(tert-butyl)-3-(1H-tetrazol-5-yl)butanoic acid], the IC50 in assay [1] is 51.7 nM; in assay [2], 72.4 nM; in assay [3], 19.2 nM. Also, in assay [4], the “NDM1 EC30016 MITC95” value stood at 0.3906 µM. Further, the “VIM1 KP599644 MITC95” value in assay [5] worked out at 2.344 µM. Also, in assay [6], the “IMP1 SM5741 MITC95” value was 1.563 µM.

`CC(C)(C)[C@H](C(=O)O)[C@H](Cc1ccc(O)nc1)c1nnn[nH]1` [Example 421, (2R,3S)-2-(tert-butyl)-4-(6-hydroxypyridin-3-yl)-3-(1H-tetrazol-5-yl)butanoic acid]: the values for the IC50 in assay [1], in assay [2] and in assay [3] were 156 nM, 157 nM and 24.9 nM, respectively. In addition, the “NDM1 EC30016 MITC95” value in assay [4] turned out to be 25 µM. Besides, the “VIM1 KP599644 MITC95” value in assay [5] amounted to 25 µM. Moreover, the “IMP1 SM5741 MITC95” value in assay [6] worked out at 100 µM.

`CC(C)(C)[C@H](C(=O)O)[C@H](Cc1ccc(NC(=N)N)nc1)c1nnn[nH]1` [Example 422, (2R,3S)-2-(tert-butyl)-4-(6-guanidinopyridin-3-yl)-3-(1H-tetrazol-5-yl)butanoic acid]: the IC50 in assay [1] is 104 nM; in assay [2], 228 nM; in assay [3], 4.01 nM. Moreover, in assay [4], the “NDM1 EC30016 MITC95” value came out at 12.5 µM. Further, the “VIM1 KP599644 MITC95” value in assay [5] stood at 6.25 µM. Further, in assay [6], the “IMP1 SM5741 MITC95” value stood at 25 µM.

Take `CC(C)(C)[C@H](C(=O)O)[C@@H](Cc1cccc2sc(Br)nc12)c1nnn[nH]1` [Example 423, (2R,3R)-4-(2-bromobenzo[d]thiazol-4-yl)-2-(tert-butyl)-3-(1H-tetrazol-5-yl)butanoic acid]: the IC50 in assay [1] was found to be 2.77 nM; in assay [2], 1.22 nM; in assay [3] it was 0.989 nM. Also, the “NDM1 EC30016 MITC95” value in assay [4] was 12.5 µM. Further, in assay [5], the “VIM1 KP599644 MITC95” value turned out to be 50 µM. In addition, the “IMP1 SM5741 MITC95” value in assay [6] came to 25 µM.

Turning to `CC(C)(C)[C@H](C(=O)O)[C@H](Cc1cccc2sc(N)nc12)c1nnn[nH]1` [Example 424, (2R,3S)-4-(2-aminobenzo[d]thiazol-4-yl)-2-(tert-butyl)-3-(1H-tetrazol-5-yl)butanoic acid], the IC50 in assay [1] was determined as 9.29 nM; in assay [2], 2.68 nM; in assay [3], 10.8 nM. Moreover, the “NDM1 EC30016 MITC95” value in assay [4] came to 12.5 µM. Further, in assay [5], the “VIM1 KP599644 MITC95” value is 200 µM. The “IMP1 SM5741 MITC95” value in assay [6] came out at 25 µM.

Regarding `CCC[C@H](C(=O)O)[C@H](Cc1ccc(Br)s1)c1nnn[nH]1` [Example 425, (S)-2-((S)-2-(5-bromothiophen-2-yl)-1-(1H-tetrazol-5-yl)ethyl)pentanoic acid], the figures for the IC50 in assay [1], in assay [2] and in assay [3] were 282 nM, 105 nM and 3.63 nM, respectively. Besides, the “NDM1 EC30016 MITC95” value in assay [4] was found to be 12.5 µM. Also, the “VIM1 KP599644 MITC95” value in assay [5] is 12.5 µM. Also, the “IMP1 SM5741 MITC95” value in assay [6] came to 25 µM.
